Measured values: patent US11401264B2, “Heterocyclic compound” (Orizuru Therapeutics, Inc., priority 2018, dated 2022)

Test system: cardiomyocytes from double knock-in human iPS cell lines (mCherry at TNNI3 locus)
Experiment: Experimental Example 1: mCherry (TNNI3 reporter) immunostaining measured by high contents screening
Type: cell-based
Set-up: key to average fluorescent intensity (at 30 μM): —: The symbol in Table 2 means that the average fluorescent intensity cannot be evaluated due to cell decrease
Details: read on 8th day, Alexa 647 anti-mCherry, control well 797; for average fluorescent intensity (at 1 μM): test compound 1 μM added on 3rd and 6th culture days; for average fluorescent intensity (at 30 μM): test compound 30 μM added on 3rd and 6th culture days
Method: For detection of cardiomyocyte maturation, double knock-in human iPS cell lines, in which reporter protein sequences, EmGFP (Sequence Number 1) and mCherry (Sequence Number 2) were inserted into gene loci for TNNI1 and TNNI3, respectively, were prepared (the human iPS cells were prepared from episomal vector (loaded gene; OCT3/4, KLF4, SOX2, L-MYC, LIN28, mouse p53DD) using PBMC (LP_167, Sample ID: 20130318) purchased from CTL (reference literature; Okita K, et al. Stem Cells. 2012 Nov. 29. doi: 10.1002/stem.1293)).
The maintenance culture of the above-mentioned reporter iPS cell lines was carried out by a conventional method (Okita K, et al. Stem Cells. 2012 Nov. 29. doi: 10.1002/stem.1293).
For differentiation induction into cardiomyocytes, the reporter iPS cell lines were treated with 0.5×TrypLE select (Life Technologies, diluted in 1/2 with 0.5 mM EDTA/PBS) for 4 to 5 minutes, and the cells were exfoliated using a cell scraper (IWAKI), and then dissociated into the single cell by pipetting. The medium was removed by centrifugation (1,000 rpm, 5 min), and the obtained cells were seeded on a bioreactor (ABLE) by 1×10^7 cells per 30 mL of the bioreactor, and then cultured in a medium prepared by adding 1% L-glutamine, transferrin 150 μg/mL, ascorbic acid 50 μg/mL (Sigma), monothioglycerol 4×10^−4 M, 10 μM Rock inhibitor (Y-27632), 2 ng/mL BMP4 (R&D) and 0.5% Matrigel (Growth Factor Reduced) to a medium after removal of solution C from StemFit AK02 (AJINOMOTO AK02, 400 mL of solution A and 100 mL of B solution, total 500 mL), at 37° C., under 5% oxygen condition (55 rpm, stirred suspension culture method) to form embryoid bodies (0 day).
Next day (1st day), 9 μL (final concentration 3 ng/mL) of 10 μg/mL activin A, 15 μL (final concentration 5 ng/mL) of 10 μg/mL bFGF and […] (final concentration 10 ng/mL) of 10 μg/mL BMP4 were added to the bioreactor, and the cells were cultured at 37° C. for additional 2 days, under 5% oxygen condition.
Then (3rd day), the obtained embryoid bodies were collected in a 50 mL centrifuge tube, and then subjected to centrifugation (200 g, 1 min). The medium was removed, and the embryoid bodies were cultured in a medium prepared by adding 1% L-glutamine, transferrin 150 μg/mL, ascorbic acid 50 μg/mL (Sigma), monothioglycerol 4×10^−4 M, 10 ng/mL VEGF, 1 μM IWP-3, 0.6 μM dorsomorphin and 5.4 μM SB431542 to a medium after removal of solution C from StemFit AK02 (AJINOMOTO AK02, 400 mL of solution A and 100 mL of B solution, total 500 mL), at 37° C. for 3 days, under 5% oxygen condition (55 rpm, stirred suspension culture method).
Then (6th day), the bioreactor was left to stand to precipitate the embryoid bodies, and 80 to 90% of the medium was removed. A medium prepared by adding 1% L-glutamine, transferrin 150 μg/mL, ascorbic acid 50 μg/mL (Sigma), monothioglycerol […] and 5 ng/mL VEGF to a medium after removal of solution C from StemFit AK02 (AJINOMOTO AK02, 400 mL of solution A and 100 mL of B solution, total 500 mL) was added to the bioreactor so that the total volume became 30 mL, and the embryoid bodies were cultured for 8 days, at 37° C., under 5% oxygen condition (55 rpm, stirred suspension culture method). During the culture, the medium was replaced with a medium under the same conditions every 2 to 3 days.
14th Day after the start of the differentiation induction, the embryoid bodies were treated with 2 mg/mL collagenase type I (Sigma) for 2 hr, and then with 0.25% trypsin/EDTA (Invitrogen) for 10 min. 50% FBS/IMDM (Thermo Fisher Science) was added thereto, and the embryoid bodies were dissociated into the single cell by pipetting, and then subjected to centrifugation (1,000 rpm, 5 minutes). […]

Row | SMILES | average fluorescent intensity (at 1 μM) | average fluorescent intensity (at 30 μM)
1 | CN(CCc1ccccc1)C(=O)CNC(=O)COc1ccc(-c2nc3cc(N4Cc5cc(N6CCCCC6)ccc5C4=O)ccc3[nH]2)cc1 [Example 11, N-methyl-N^~2^~-((4-(5-(1-oxo-5-(piperidin-1-yl)-1,3-dihydro-2H-isoindol-2-yl)-1H-benzimidazol-2-yl)phenoxy)acetyl)-N-(2-phenylethyl)glycinamide] | 1182 | —
2 | O=C(COc1ccc(-c2nc3cc(N4Cc5cc(N6CCOCC6)ccc5C4=O)ccc3[nH]2)cc1)N1CCOCC1 [Example 32, 5-(morpholin-4-yl)-2-(2-(4-(2-(morpholin-4-yl)-2-oxoethoxy)phenyl)-1H-benzimidazol-5-yl)isoindolin-1-one] | 1312 | 1937
3 | CC(C)CNC(=O)COc1ccc(-c2nc3cc(N4Cc5cc(N6CCCCC6)ccc5C4=O)ccc3[nH]2)cc1 [Example 26, N-isobutyl-2-(4-(5-(1-oxo-5-(piperidin-1-yl)-1,3-dihydro-2H-isoindol-2-yl)-1H-benzimidazol-2-yl)phenoxy)acetamide] | 1809 | —
4 | CN(C(=O)COc1ccc(-c2nc3cc(N4Cc5cc(N6CCCCC6)ccc5C4=O)ccc3[nH]2)cc1)C1CCOCC1 [Example 14, N-methyl-2-(4-(5-(1-oxo-5-(piperidin-1-yl)-1,3-dihydro-2H-isoindol-2-yl)-1H-benzimidazol-2-yl)phenoxy)-N-(tetrahydro-2H-pyran-4-yl)acetamide] | 2143 | 2012
5 | CCOc1ccc(-c2nc3cc(N4Cc5cc(N(C)C)ccc5C4=O)ccc3[nH]2)cc1 [Example 61, 5-(dimethylamino)-2-(2-(4-ethoxyphenyl)-1H-benzimidazol-5-yl)isoindolin-1-one] | 1150 | 
6 | O=C(COc1ccc(-c2nc3cc(N4Cc5cc(N6CCCCC6)ccc5C4=O)ccc3[nH]2)cc1)NC/C=C/CCc1ccccc1 [Example 9, 2-(4-(5-(1-oxo-5-(piperidin-1-yl)-1,3-dihydro-2H-isoindol-2-yl)-1H-benzimidazol-2-yl)phenoxy)-N-((2E)-5-phenylpent-2-en-1-yl)acetamide] | 948 | —
7 | COC(=O)COc1ccc(-c2nc3cc(N4Cc5cc(N6CCOCC6)ccc5C4=O)ccc3[nH]2)cc1 [Example 50, methyl (4-(5-(5-(morpholin-4-yl)-1-oxo-1,3-dihydro-2H-isoindol-2-yl)-1H-benzimidazol-2-yl)phenoxy)acetate] | 1126 | 1717
8 | CCCCCCOc1ccc(-c2nc3cc(N4Cc5cc(N6CCOCC6)ccc5C4=O)ccc3[nH]2)cc1 [Example 54, 2-(2-(4-(hexyloxy)phenyl)-1H-benzimidazol-5-yl)-5-(morpholin-4-yl)isoindolin-1-one] | 838 | —
9 | O=C(COc1ccc(-c2nc3cc(N4Cc5cc(N6CCOCC6)ccc5C4=O)ccc3[nH]2)cc1)OCc1ccccc1 [Example 52, benzyl (4-(5-(5-(morpholin-4-yl)-1-oxo-1,3-dihydro-2H-isoindol-2-yl)-1H-benzimidazol-2-yl)phenoxy)acetate] | 937 | 973
10 | Cc1cccc(NC(=O)COc2ccc(-c3nc4cc(N5Cc6cc(N7CCCCC7)ccc6C5=O)ccc4[nH]3)cc2)c1 [Example 23, N-(3-methylphenyl)-2-(4-(5-(1-oxo-5-(piperidin-1-yl)-1,3-dihydro-2H-isoindol-2-yl)-1H-benzimidazol-2-yl)phenoxy)acetamide] | 1386 | 
11 | CCOc1ccc(-c2nc3cc(N4Cc5cc(N6CCOCC6)ccc5C4=O)ccc3n2C)cc1 [Example 59, 2-(2-(4-ethoxyphenyl)-1-methyl-1H-benzimidazol-5-yl)-5-(morpholin-4-yl)isoindolin-1-one] | 803 | 1301
12 | COCc1ccc(-c2nc3cc(N4Cc5cc(N6CCOCC6)ccc5C4=O)ccc3[nH]2)cc1 [Example 66, 2-(2-(4-(methoxymethyl)phenyl)-1H-benzimidazol-5-yl)-5-(morpholin-4-yl)isoindolin-1-one] | 1338 | 1358
13 | Cc1ccc(NC(=O)COc2ccc(-c3nc4cc(N5Cc6cc(N7CCCCC7)ccc6C5=O)ccc4[nH]3)cc2)cc1 [Example 22, N-(4-methylphenyl)-2-(4-(5-(1-oxo-5-(piperidin-1-yl)-1,3-dihydro-2H-isoindol-2-yl)-1H-benzimidazol-2-yl)phenoxy)acetamide] | 1211 | —
14 | CCOc1ccc(-c2nc3cc(N4Cc5cc(N6CCCCC6)ccc5C4=O)ccc3[nH]2)cc1 [Example 65, 2-(2-(4-ethoxyphenyl)-1H-benzimidazol-5-yl)-5-(piperidin-1-yl)isoindolin-1-one] | 1245 | 836
15 | CC(C)NC(=O)COc1ccc(-c2nc3cc(N4Cc5cc(N6CCOCC6)ccc5C4=O)ccc3[nH]2)cc1 [Example 29, N-isopropyl-2-(4-(5-(5-(morpholin-4-yl)-1-oxo-1,3-dihydro-2H-isoindol-2-yl)-1H-benzimidazol-2-yl)phenoxy)acetamide] | 1120 | 910
16 | COC(=O)COc1ccc(-c2nc3cc(N4Cc5cc(N6CCCCC6)ccc5C4=O)ccc3[nH]2)cc1 [Example 5, methyl (4-(5-(l-oxo-5-(piperidin-1-yl)-1,3-dihydro-2H-isoindol-2-yl)-1H-benzimidazol-2-yl)phenoxy)acetate] | 1078 | —
17 | COc1ccc(-c2nc3cc(N4Cc5ccccc5C4=O)ccc3[nH]2)cc1 [Example 7, 2-(2-(4-methoxyphenyl)-1H-benzimidazol-5-yl)isoindolin-1-one] | 859 | 1631
18 | COc1ccc(-c2nc3cc(N4Cc5cc(N6CCCCC6)ccc5C4=O)ccc3[nH]2)cc1 [Example 68, 2-(2-(4-methoxyphenyl)-1H-benzimidazol-5-yl)-5-(piperidin-1-yl)isoindolin-1-one] | 1301 | 
19 | CN(C)C(=O)COc1ccc(-c2nc3cc(N4Cc5cc(N6CCOCC6)ccc5C4=O)ccc3[nH]2)cc1 [Example 38, N,N-dimethyl-2-(4-(5-(5-(morpholin-4-yl)-1-oxo-1,3-dihydro-2H-isoindol-2-yl)-1H-benzimidazol-2-yl)phenoxy)acetamide] | 1633 | —
20 | CCOc1ccc(-c2nc3cc(N4Cc5cc(-n6cccc6)ccc5C4=O)ccc3[nH]2)cc1 [Example 63, 2-(2-(4-ethoxyphenyl)-1H-benzimidazol-5-yl)-5-(1H-pyrrol-1-yl)isoindolin-1-one] | 1194 | —
